Measurements: PubChem BioAssay AID1845196 (Molecular Pharmacology Branch, DTP, NCI, 2023)

Tested on: 292921-168-R tumor spheroid viability
Test: Anticancer human tumor 292921-168-R patient-derived pancreatic carcinoma cell line growth inhibition
Settings: spheroids with HUVEC and MSC; for IC50: curve of first compound; for viability, T/C: stronger effect = lower value
From the text: Multicellular complex tumor spheroid response to DNA repair inhibitors in combination with DNA-damaging drugs
This study explores the anticancer activities of DNA-damaging drugs and inhibitors of DNA damage repair, both as single agents and in combinations. Complex tumor spheroids comprised of malignant cells, endothelial cells and mesenchymal stem cells served as an in vitro model for human solid tumors. This model system incorporates physiologically relevant features and patient-derived or established malignant cell lines with clinically relevant genetic alterations from many tumor types. Twenty-six patient-derived or established malignant cell lines were evaluated representing sarcoma, melanoma, small cell lung cancer (SCLC), non-small cell lung cancer (NSCLC), as well as bladder, ovarian and pancreatic cancers. The concentration ranges selected for each drug and investigational agent were based upon clinically achievable concentrations if the clinical Cmax of the agent was known.
Compounds. The drugs and compounds olaparib (NSC753686), talazoparib (NSC767125), berzosertib (NSC777718), elimusertib (NSC800525), nedisertib (NSC802822), VX-984 (NSC792969), AZD-1390 (NSC803789), temozolomide (NSC362856), topotecan (NSC609699), trabectedin (NSC813783), staurosporine (NSC755774), and gemcitabine (NSC613327) were obtained from the National Cancer Institute (NCI) Developmental Therapeutics Program Chemical Repository. The FDA-approved anticancer drug set is available from the Developmental Therapeutics Program at https://dtp.cancer.gov/organization/dscb/obtaining/available_plates.htm. […] The stock solutions were prepared in dimethyl sulfoxide (DMSO, Sigma-Aldrich, St. Louis, MO, cat. D2650) at 400-fold the tested concentration and stored at -70 degrees C. Prior to their use, the stock solutions were diluted in fresh medium and the final DMSO concentration in the assay was 0.25% (v/v). All drugs and investigational agents were tested over a range starting from a high concentration at or near the clinical Cmax and decreasing in half-log increments. If the clinical Cmax for an agent had not been determined, the highest concentration tested was 10 microM.
Cell Lines. The patient-derived cancer cell (PDC) lines: 156681-154-R-J1-PDC, 283228-195-R-J1-PDC, 287954-098-R-J1-PDC, 292921-168-R-J2-PDC, 349418-098-R-PDC, 425362-245-T-J1-PDC, 556581-035-R-J1-PDC, and BL0293-F563-PDC were received from the NCI Patient-Derived Models Repository (PDMR, https://pdmr.cancer.gov). The established cell lines HS-SY-2 (RRID:CVCL_8719), MPNST, and SYO-1 (RRID:CVCL_7146) were obtained from the Sloan Kettering Institute. The alveolar soft parts sarcoma cell line ASPS-1 (RRID:CVCL_S738) was established at the NCI and grown from internal seed stocks. The following established cell lines were purchased from the American Type Culture Collection (ATCC, Manassas, VA): G-401 (ATCC, cat. CRL-1441, RRID:CVCL_0270), SW982 (ATCC, cat. HTB-93, RRID:CVCL_1734), VA-ES-BJ (ATCC, cat. CRL-2138, RRID:CVCL_1785), NCI-H719 (ATCC, cat. CRL-5837, RRID:CVCL_1582), NCI-H196 (ATCC, cat. CRL-5823, RRID:CVCL_1509), NCI-H841 (ATCC, cat. CRL-5845, RRID:CVCL_1595), NCI-H1618 (ATCC, cat. CRL-5879, RRID:CVCL_1480), NCI-H1876 (ATCC, cat. CRL-5902, RRID:CVCL_1503), DMS 114 (ATCC, cat. CRL-2066; RRID:CVCL_1174), NCI-H211 (ATCC, cat. CRL-5824; RRID:CVCL_1529), and SW 1271 (ATCC, cat. CRL-2177, RRID:CVCL_1716). The small cell lung cancer cell line COR-L88 was purchased from Sigma-Aldrich (cat. 92031917-1VL, RRID:CVCL_1141). The non-small cell lung cancer cell lines NCI-H226 (RRID:CVCL_1544) and NCI-H322M (RRID:CVCL_1557) were established at the NCI and grown from internal seed stocks. Pooled donor human umbilical vein endothelial cells (HUVEC, Lonza, cat. CC-2519) and human mesenchymal stem cells (hMSC, Lonza, cat. PT-2501) were purchased from Lonza (Walkersville, MD).
Cell Culture. All cells were maintained in an incubator at 37 degrees C and 5% CO2 with 95% humidity. […]
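Further: spheroids exposed to compounds for 7 days.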

In the case of `Cc1cc(C)c(CNC(=O)c2cc(-c3ccc(CN4CCOCC4)cc3)cc3c2cnn3C2CCCC2)c(=O)[nH]1` + CC[C@@]1(O)C(=O)OCc2c1cc1n(c2=O)Cc2cc3c(CN(C)C)c(O)ccc3nc2-1, the IC50 (second compound 0.003 µM) is reported as > 10000 nM, the IC50 (second compound 0.00949 µM) is reported as > 10000 nM and the IC50 (second compound 0.03 µM) is reported as < 31.6 nM. For the same molecule, the IC50 (second compound 0.0949 µM) was < 31.6 nM, the IC50 (second compound 0.3 µM) was < 31.6 nM and the viability, T/C (second compound 0.003 µM, first compound 0.0316 µM) was 87.6%. For the same molecule, the viability, T/C (second compound 0.003 µM, first compound 0.1 µM) was 78.4%, the viability, T/C (second compound 0.003 µM, first compound 0.316 µM) was 84.7% and the viability, T/C (second compound 0.003 µM, first compound 1 µM) was 82.2%. The viability, T/C (second compound 0.003 µM, first compound 3.16 µM) was 85.9%, the viability, T/C (second compound 0.003 µM, first compound 10 µM) was 50.9% and the viability, T/C (second compound 0.00949 µM, first compound 0.0316 µM) was 76.9%. It also gave a viability, T/C (second compound 0.00949 µM, first compound 0.1 µM) of 77.2%, a viability, T/C (second compound 0.00949 µM, first compound 0.316 µM) of 76% and a viability, T/C (second compound 0.00949 µM, first compound 1 µM) of 71.7%. The viability, T/C (second compound 0.00949 µM, first compound 3.16 µM) was 64.8%, the viability, T/C (second compound 0.00949 µM, first compound 10 µM) was 53% and the viability, T/C (second compound 0.03 µM, first compound 0.0316 µM) was 32.5%. The viability, T/C (second compound 0.03 µM, first compound 0.1 µM) was 37.8%, the viability, T/C (second compound 0.03 µM, first compound 0.316 µM) was 34.9% and the viability, T/C (second compound 0.03 µM, first compound 1 µM) was 35.5%. For the same molecule, the viability, T/C (second compound 0.03 µM, first compound 3.16 µM) was 28.6%, the viability, T/C (second compound 0.03 µM, first compound 10 µM) was 27.8% and the viability, T/C (second compound 0.0949 µM, first compound 0.0316 µM) was 14.8%. For the same molecule, the viability, T/C (second compound 0.0949 µM, first compound 0.1 µM) was 14.2%, the viability, T/C (second compound 0.0949 µM, first compound 0.316 µM) was 14.2% and the viability, T/C (second compound 0.0949 µM, first compound 1 µM) was 13.4%. For the same molecule, the viability, T/C (second compound 0.0949 µM, first compound 3.16 µM) was 14.1%, the viability, T/C (second compound 0.0949 µM, first compound 10 µM) was 13.1% and the viability, T/C (second compound 0.3 µM, first compound 0.0316 µM) was 3.97%. It also gave a viability, T/C (second compound 0.3 µM, first compound 0.1 µM) of 4.78%, a viability, T/C (second compound 0.3 µM, first compound 0.316 µM) of 4.87% and a viability, T/C (second compound 0.3 µM, first compound 1 µM) of 5.2%. The viability, T/C (second compound 0.3 µM, first compound 3.16 µM) was 5.56% and the viability, T/C (second compound 0.3 µM, first compound 10 µM) was 6.73%.
In the case of `Cc1sc2c(c1C)C(c1ccc(Cl)cc1)=NC(CC(=O)Nc1ccc(O)cc1)c1nnc(C)n1-2` (stereo not given) + CC[C@@]1(O)C(=O)OCc2c1cc1n(c2=O)Cc2cc3c(CN(C)C)c(O)ccc3nc2-1, the IC50 (second compound 0.003 µM) is reported as 389 nM, the IC50 (second compound 0.00949 µM) is reported as 449 nM and the IC50 (second compound 0.03 µM) is reported as < 9.49 nM. The IC50 (second compound 0.0949 µM) was < 9.49 nM, the IC50 (second compound 0.3 µM) was < 9.49 nM and the viability, T/C (second compound 0.003 µM, first compound 0.00949 µM) was 92.5%. It also gave a viability, T/C (second compound 0.003 µM, first compound 0.03 µM) of 67.6%, a viability, T/C (second compound 0.003 µM, first compound 0.0949 µM) of 62% and a viability, T/C (second compound 0.003 µM, first compound 0.3 µM) of 57.6%. For the same molecule, the viability, T/C (second compound 0.003 µM, first compound 0.949 µM) was 44.1%, the viability, T/C (second compound 0.003 µM, first compound 3 µM) was 28.5% and the viability, T/C (second compound 0.00949 µM, first compound 0.00949 µM) was 81.1%. It also gave a viability, T/C (second compound 0.00949 µM, first compound 0.03 µM) of 67.4%, a viability, T/C (second compound 0.00949 µM, first compound 0.0949 µM) of 63.8% and a viability, T/C (second compound 0.00949 µM, first compound 0.3 µM) of 56.3%. The viability, T/C (second compound 0.00949 µM, first compound 0.949 µM) was 43.5%, the viability, T/C (second compound 0.00949 µM, first compound 3 µM) was 21.6% and the viability, T/C (second compound 0.03 µM, first compound 0.00949 µM) was 31.5%. For the same molecule, the viability, T/C (second compound 0.03 µM, first compound 0.03 µM) was 31.4%, the viability, T/C (second compound 0.03 µM, first compound 0.0949 µM) was 29.6% and the viability, T/C (second compound 0.03 µM, first compound 0.3 µM) was 25%. It also gave a viability, T/C (second compound 0.03 µM, first compound 0.949 µM) of 13.8%, a viability, T/C (second compound 0.03 µM, first compound 3 µM) of 2.79% and a viability, T/C (second compound 0.0949 µM, first compound 0.00949 µM) of 9.7%. The viability, T/C (second compound 0.0949 µM, first compound 0.03 µM) was 8.41%, the viability, T/C (second compound 0.0949 µM, first compound 0.0949 µM) was 6.38% and the viability, T/C (second compound 0.0949 µM, first compound 0.3 µM) was 3.78%. The viability, T/C (second compound 0.0949 µM, first compound 0.949 µM) was 1.73%, the viability, T/C (second compound 0.0949 µM, first compound 3 µM) was 1.06% and the viability, T/C (second compound 0.3 µM, first compound 0.00949 µM) was 4.29%. It also gave a viability, T/C (second compound 0.3 µM, first compound 0.03 µM) of 3.58%, a viability, T/C (second compound 0.3 µM, first compound 0.0949 µM) of 3.16% and a viability, T/C (second compound 0.3 µM, first compound 0.3 µM) of 1.72%. For the same molecule, the viability, T/C (second compound 0.3 µM, first compound 0.949 µM) was 0.92% and the viability, T/C (second compound 0.3 µM, first compound 3 µM) was 0.66%.
